Experimental data taken from publication PMC4971745, “Evaluation of a Set of C9 N-acyl Neu5Ac2en Mimetics as Viral Sialidase Selective Inhibitors” (International Journal of Medicinal Chemistry, 2010).
pIC50: −log10 of the molar value.

Experiments:
[1] = target: T1, sialidase of influenza A virus A/Memphis/1/71 (H3N2) (Influenza A virus, UniProt P03475); assay: biochemical
T1 construct: preincubated with 5 μL of the virus containing 2 enzyme units; host or cells: whole virus preparation

human sialidase NEU4 = conditions: previously reported; ref [39]; read-out: Human sialidase inhibition (IC50) NEU4; cited from earlier work
[2] = test system: sialidase of influenza A virus A/Duck/313/78 (H5N3); type: biochemical; conditions: pH 6; read-out: Viral sialidase inhibition (IC50) H5N3
human sialidase NEU3 = conditions: previously reported; ref [39]; read-out: Human sialidase inhibition (IC50) NEU3; cited from earlier work
[3] = target: T2, sialidase of influenza A virus A/PR/8/34 (H1N1) (Influenza A virus, UniProt P03468); assay: biochemical
T2 construct: preincubated with 5 μL of the virus containing 2 enzyme units; host or cells: whole virus preparation
T2 sequence (P03468 whole entry): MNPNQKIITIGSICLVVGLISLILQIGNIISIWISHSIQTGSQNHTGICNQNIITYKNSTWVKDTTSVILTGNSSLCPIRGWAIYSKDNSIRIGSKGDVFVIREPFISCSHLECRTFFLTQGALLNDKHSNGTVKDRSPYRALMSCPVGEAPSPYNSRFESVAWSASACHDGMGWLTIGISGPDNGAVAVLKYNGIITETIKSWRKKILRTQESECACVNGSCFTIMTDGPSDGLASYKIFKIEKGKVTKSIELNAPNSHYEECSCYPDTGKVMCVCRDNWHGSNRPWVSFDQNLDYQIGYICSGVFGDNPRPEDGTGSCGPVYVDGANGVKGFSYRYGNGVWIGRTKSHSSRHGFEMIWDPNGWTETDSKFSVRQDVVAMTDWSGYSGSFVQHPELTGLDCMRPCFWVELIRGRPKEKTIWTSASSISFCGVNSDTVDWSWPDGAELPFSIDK

human sialidase NEU1 = conditions: previously reported; ref [39]; read-out: Human sialidase inhibition (IC50) NEU1; cited from earlier work
human sialidase NEU2 = conditions: previously reported; ref [39]; read-out: Human sialidase inhibition (IC50) NEU2; cited from earlier work

T1 sequence (P03475 whole entry): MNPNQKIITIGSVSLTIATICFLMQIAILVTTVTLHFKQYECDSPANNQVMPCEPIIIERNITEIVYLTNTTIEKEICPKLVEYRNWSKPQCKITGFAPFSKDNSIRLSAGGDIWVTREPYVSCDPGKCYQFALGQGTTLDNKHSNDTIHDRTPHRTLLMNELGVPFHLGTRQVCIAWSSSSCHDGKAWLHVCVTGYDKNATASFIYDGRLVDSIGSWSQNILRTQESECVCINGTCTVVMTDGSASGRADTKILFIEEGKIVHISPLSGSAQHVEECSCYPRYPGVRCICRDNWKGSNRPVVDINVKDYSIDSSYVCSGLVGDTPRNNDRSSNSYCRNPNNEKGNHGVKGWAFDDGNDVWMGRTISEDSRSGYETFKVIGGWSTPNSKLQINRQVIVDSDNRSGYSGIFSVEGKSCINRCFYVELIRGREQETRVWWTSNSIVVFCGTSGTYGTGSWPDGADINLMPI

| Structure (SMILES) | pIC50 [1] | pIC50 (human sialidase NEU4) | pIC50 [2] | pIC50 (human sialidase NEU3) | pIC50 [3] | pIC50 (human sialidase NEU1) | pIC50 (human sialidase NEU2) |
| --- | --- | --- | --- | --- | --- | --- | --- |
| CC(=O)N[C@H]1[C@H]([C@H](O)[C@H](O)CO)OC(C(=O)O)=C[C@@H]1O [DANA, 5-acetamido-2,6-anhydro-3,5-dideoxy-D-glycero-D-galacto-non-2-enonic acid, reference compound] | 5.05 | 4.13 | 4.96 | 4.21 |  |  |  |
| CC(=O)N[C@@H]1[C@@H]([C@H](O)[C@H](O)CNC(=O)C(C)(C)C)OC(C(=O)O)=C[C@H]1O [Compound 13] | 3.11 |  | < 3.00 |  | 4.11 |  |  |
| CCCCC(=O)NC[C@@H](O)[C@@H](O)[C@H]1OC(C(=O)O)=C[C@@H](O)[C@@H]1NC(C)=O [Compound 12] | 3.80 |  | < 3.00 |  | 4.47 |  |  |
| CC(=O)N[C@@H]1[C@@H]([C@H](O)[C@H](O)CNC(=O)C2CCCC2)OC(C(=O)O)=C[C@H]1O [Compound 7] | < 3.00 |  | < 3.00 |  | 3.07 |  |  |
| CC(=O)NC[C@@H](O)[C@@H](O)[C@H]1OC(C(=O)O)=C[C@@H](O)[C@@H]1NC(C)=O [Compound 5] | 4.47 | 3.24 | 4.01 | < 3.00 | 4.66 | 4.24 | < 3.00 |
| CCC(CC)C(=O)NC[C@@H](O)[C@@H](O)[C@@H]1OC(C(=O)O)=C[C@H](O)[C@H]1NC(C)=O [Compound 14] | < 3.00 |  | < 3.00 |  | 3.16 |  |  |
| CCCC(=O)NC[C@@H](O)[C@@H](O)[C@H]1OC(C(=O)O)=C[C@@H](O)[C@@H]1NC(C)=O [Compound 9] | 3.25 |  |  |  | 4.01 |  |  |
| CC(=O)N[C@@H]1[C@@H]([C@H](O)[C@H](O)CNC(=O)C(C)C)OC(C(=O)O)=C[C@H]1O [Compound 11] | 3.17 |  | < 3.00 |  | 4.27 |  |  |
| CC(=O)N[C@@H]1[C@@H]([C@H](O)[C@H](O)CNC(=O)c2ccccc2)OC(C(=O)O)=C[C@H]1O [Compound 6] | < 3.00 |  | < 3.00 |  | < 3.00 |  |  |
| CC(=O)N[C@@H]1[C@@H]([C@H](O)[C@H](O)CNC(=O)C2CC2)OC(C(=O)O)=C[C@H]1O [Compound 8] | 4.80 | 3.08 | 4.01 | < 3.00 | 5.05 | 3.17 | < 3.00 |
| CCC(C)C(=O)NC[C@@H](O)[C@@H](O)[C@@H]1OC(C(=O)O)=C[C@H](O)[C@H]1NC(C)=O (some centres unmarked) [Compound 10] | < 3.00 |  | < 3.00 |  | 4.23 |  |  |
